Consider 39 molecules from PubChem BioAssay (NCI).

“And” between values parts separate entries of the source, which are not always exact repeats. Equal values may be shown once.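 Cultured in 96-well plates, cells were exposed to test compound for 48 hours across five concentrations. GI50 marks 50% less growth. Definition used: TGI = concentration required for complete inhibition of growth.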

The test system of this test is MDA-MB-468 breast. The experiment in a line: NCI anticancer screen, dose series, 48 h.
`N#Cc1ncc(N2C(=O)C3(CCC3)N(c3ccc(OC4CCNCC4)nc3)C2=S)cc1C(F)(F)F`: the GI50 is 9800 nM and the TGI came out at 24.6 µM.
The like results for `Cn1c(O)c(N=NC(N)=S)c2ccccc21` were, in that order, 20400 nM and > 100 µM.
`OC1CCN(CCCOc2c3ccccc3nc3c2oc2ccc(Cl)cc23)CC1`: the GI50 is 1610 nM and the TGI was determined as 5.71 µM.
On the same counts, the results for `O[C@H](CN1CC1)[C@@H](O)CN1CC1` are 389 nM and 2.65 µM.
On the same counts, the results for `CCN(CC)CCOc1nc2cc(OC)c(OC)cc2c2c1-c1ccc(OC)cc1C2=O` are 10100 nM and 23.1 µM.
For `NS(=O)(=O)c1ccc(Nc2nc(N/N=C/c3ccccn3)nc(Nc3ccccc3)n2)cc1`, the GI50 was 318 nM and the TGI was found to be 2.01 µM.
With `N#CC1CCc2c(c(-c3cn[nH]c3C(F)(F)F)nc3c(F)cc4[nH]ncc4c23)C1` (stereo not drawn), the GI50 is 2190 nM and the TGI came out at 6.23 µM.
On the same counts, the results for `CS(=O)(=O)Nc1cc(-c2ccc3ncnc(Nc4cccc(Cl)c4F)c3c2)cnc1Cl` are 1280 nM and 3.44 µM.
On the same counts, the results for `CCCNc1cccc(-n2ncc3c(N/N=C/c4ccncc4)ncnc32)c1` are 768 nM and > 25 µM.
On the same counts, the results for `CN1CCc2c(sc3ncnc(N/N=C/c4ccc(Cl)c(Cl)c4)c23)C1` are 10900 nM and 25.8 µM.
Take `CC1(C)N=C(N)N=C(N)N1c1ccc(OCCCCNC(=O)c2ccc(S(=O)(=O)F)cc2)c(Cl)c1`: the GI50 was 18400 nM and the TGI was > 100 µM.
Take `O=C(c1ccccc1)c1ccccc1C(=O)c1ccccc1`: the GI50 was 28700 nM and the TGI was > 100 µM.
On the same counts, the results for `CC[C@H](C)[C@H](NC(=O)c1nccn1C)C(=O)N(C)[C@H](C[C@@H](OC(C)=O)c1nc(C(=O)N[C@@H](Cc2ccccc2)C[C@H](C)C(=O)OC)cs1)C(C)C` are 427 nM and > 33.3 µM.
On the same counts, the results for `Cc1nc2sc(C(=O)Nc3cccc(Cl)c3C)c(N)c2cc1C(C)O` (stereo not drawn) are 71.2 nM and 4.44 µM.
On the same counts, the results for `CCC(=O)OC1=CN2C(=NC(c3ccc(N)cc3)=CC2c2cc(OC)c(OC)c(OC)c2)S1` (stereo not drawn) are 2100 nM and 6.32 µM.
Take `COc1ccc(S(=O)(=O)n2c3ccccc3n3ncc(-c4nnc(C)o4)c23)cc1`: the GI50 is 266 nM and the TGI stood at 5.49 µM.
The like results for `C[C@H]1CC2=CC(=O)CC[C@]2(C)[C@H]2CC[C@@]3(C)[C@@H](CC[C@]3(C)O)[C@H]12` were, in that order, 33900 nM and > 100 µM.
The like results for `O=c1[nH]cnc2nc(-c3ccc(N(CCCl)CCCl)cc3)[nH]c12` were, in that order, > 100000 nM and > 100 µM.
On the same counts, the results for `O=c1oc2cc(OS(=O)(=O)c3ccccc3)ccc2c2c1CCCCC2` are 2850 nM and > 100 µM.
Take `FC(F)(F)c1cc(NC2=NCCN=C(Nc3cc(C(F)(F)F)cc(C(F)(F)F)c3)SS2)cc(C(F)(F)F)c1`: the GI50 is 2070 nM and the TGI was 7.45 µM.
With `CC(C)(F)C[C@H](N[C@@H](c1ccc(-c2ccc(S(C)(=O)=O)cc2)cc1)C(F)(F)F)C(=O)NC1(C#N)CC1`, the GI50 was 54400 nM and > 100000 nM; the TGI is 55 µM and > 100 µM.
As to `O=C(Nc1cccc([N+](=O)[O-])c1)c1cc2ccccc2cc1O`, the GI50 is 2320 nM and the TGI was determined as 17.5 µM.
On the same counts, the results for `NC(=S)N/N=C\c1nccc2c(C(F)(F)C(F)(F)C(F)(F)F)cccc12` are 40 nM and 0.262 µM.
For the molecule `Cc1ccc(/C=C2\CN(Cc3cn(CCNc4ccnc5cc(Cl)ccc45)nn3)C/C(=C\c3ccc(C)cc3)C2=O)cc1`, the GI50 is 1620 nM and the TGI stood at 3.72 µM.
The like results for `Cc1cc(Cl)ccc1NC(=O)NC(C)(C)COC(=O)Nc1cccc(Cl)c1` were, in that order, 4610 nM and 36 µM.
`Brc1ccc2c(c1)c(-c1nc(-c3c[nH]c4ncccc34)cs1)cn2CCCN1CCCCC1`: the GI50 is 1700 nM and the TGI was 3.25 µM.
Take `COc1cc(CNC(=O)CCSc2nc3ccccc3c(=O)n2Cc2cc(OC)c(OC)c(OC)c2)cc(OC)c1OC`: the GI50 is 2350 nM and the TGI came out at 9.67 µM.
For the molecule `C=C(C)[C@@H]1CC[C@]2(C)[C@H](CC=C3[C@@H]4[C@H](C)[C@@H](C)CC[C@]4(CO)CC[C@]32C)[C@@]1(C)CCCN`, the GI50 is 819 nM and the TGI is 1.66 µM.
As for `O=S1(=O)CC(Br)C(Br)C1` (stereo not drawn), the GI50 is 1390 nM and the TGI was 3.82 µM.
The like results for `C=C1C(=O)O[C@H]2[C@H]1CC/C(COC(=O)/C=C/c1c[nH]c3ccccc13)=C\CC[C@@]1(C)O[C@@H]21` were, in that order, 196 nM and 0.404 µM.
Take `COc1cc2c(cc1O)CC[C@@H]1C2CC[C@@]2(C)C1CC[C@@H]2O` (stereo partly drawn): the GI50 was 31100 nM and the TGI was > 100 µM.
Regarding `C#CCOc1cccc(Nc2ncc3ncn(C4CCN(C(=O)CCl)C4)c3n2)c1` (stereo not drawn), the GI50 is 19700 nM and the TGI was > 62.5 µM.
The like results for `O=C(Nc1ccc(-c2ccnc(Nc3ccc(N4CCOCC4)cc3)n2)cc1)C1CCCN1` (stereo not drawn) were, in that order, 10200 nM and 26.3 µM.
Turning to `O=C(O)c1ccc2cccnc2c1O`, the GI50 is 1410 nM and the TGI came to 6.5 µM.
On the same counts, the results for `Cc1ccc(S(=O)(=O)c2ccsc2N)cc1` are 36700 nM and > 100 µM.
As for `Cc1[nH]n(-c2ccccc2)c(=O)c1C(=O)c1ccccc1`, the GI50 is 17500 nM and the TGI is > 25 µM.
On the same counts, the results for `C=C1C[C@@H]2[C@H](CC[C@]3(C)C(=O)CC[C@@H]23)[C@@]2(C)C=CC(=O)C=C12` are 14600 nM and 65.2 µM.
On the same counts, the results for `c1cc2ccc1CNCCN1CCNCc3ccc(cc3)Oc3ccc(cc3)CNCCN(CCNCc3ccc(cc3)O2)CCNCc2ccc(cc2)Oc2ccc(cc2)CNCC1` are 673 nM and 2.09 µM.
The like results for `Cc1ccc2cnc(N)c(C#Cc3cncc(C(=O)Nc4ccc(CN5CCN(C)CC5)c(C(F)(F)F)c4)c3)c2c1` were, in that order, 662 nM and 1.47 µM.
